Patent US8648066B2 (Exelixis, Inc., priority 2009, dated 2014)

These compounds were tested against mTOR/GbL/Raptor (mTORC1) (Homo sapiens, UniProt P42345) (assay: mTOR/GbL/Raptor (mTORC1) ELISA assay). Settings: phosphorylation of 4E-BP1; 0.2 nM mTORC1, 10 μM ATP; read-out: IC50 in this assay (mTORC1 ELISA).
Format: biochemical
In short: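 ELISA read-out: phospho-4E-BP1 captured on Ni-chelate plates and detected with anti-phospho antibody plus HRP-anti-IgG luminescence. The kinase step ran 120 min at ambient temperature with 0.2 nM human mTORC1, 10 µM ATP, 50 nM His-4E-BP1, 10 mM MnCl2, pH 7.2 HEPES.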

| IC50 [nM] | Structure (SMILES) |
| --- | --- |
| 50 to 250 | CCNc1nc2ccc(-c3ccc4c(c3)CN(c3ccnc5ccccc35)CCO4)cc2[nH]1 [Example 208, N-ethyl-6-(4-quinolin-4-yl-2,3,4,5-tetrahydro-1,4-benzoxazepin-7-yl)-1H-benzimidazol-2-amine] |
| ≤ 10 | COC(=O)Nc1nc2ncc(-c3ccc4c(c3)CN(c3ncnc5c3CC(C)(C)C=C5)CCO4)cc2[nH]1 [Example 583, methyl {6-[4-(6,6-dimethyl-5,6-dihydroquinazolin-4-yl)-2,3,4,5-tetrahydro-1,4-benzoxazepin-7-yl]-1H-imidazo[4,5-b]pyridin-2-yl}carbamate] |
| 50 to 250 | Cc1ncc(-c2ccc3c(c2)CN(c2ncnc4c2CC(C)(C)CC4)CCO3)cc1NS(C)(=O)=O [Example 633, N-{5-[4-(6,6-dimethyl-5,6,7,8-tetrahydroquinazolin-4-yl)-2,3,4,5-tetrahydro-1,4-benzoxazepin-7-yl]-2-methylpyridin-3-yl}methanesulfonamide] |
| 50 to 250 | CCc1c(C(C)C)ncnc1N1CCOc2ccc(-c3ccc4nc(C)[nH]c4c3)cc2C1 [Example 61, 4-[5-ethyl-6-(1-methylethyl)pyrimidin-4-yl]-7-(2-methyl-1H-benzimidazol-6-yl)-2,3,4,5-tetrahydro-1,4-benzoxazepine] |
| 10 to 50 | CC1(C)CCc2ncnc(N3CCOc4ccc(-c5cnc(N)c(S(=O)(=O)N6CCCC(O)C6)c5)cc4C3)c2C1 (stereo not drawn) [Example 316] |
| 250 to 1000 | COc1cc2nccc(N3CCOc4ccc(-c5ccc6nc(N)[nH]c6c5)cc4C3)c2cc1OC [Example 191, 6-{4-[6,7-bis(methyloxy)quinolin-4-yl]-2,3,4,5-tetrahydro-1,4-benzoxazepin-7-yl}-1H-benzimidazol-2-amine] |
| 250 to 1000 | CCNc1nc2ccc(-c3ccc4c(c3)CN(c3cc(Nc5ccc(OC)cc5)ncn3)CCO4)cc2[nH]1 [Example 276, N-ethyl-6-[4-(6-{[4-(methyloxy)phenyl]amino}pyrimidin-4-yl)-2,3,4,5-tetrahydro-1H-benzoxazepin-7-yl]-1H-benzimidazol-2-amine] |
| 50 to 250 | CCNc1nc2ccc(-c3ccc4c(c3)CN(c3nc(C)nc5cc(F)ccc35)CCO4)cc2[nH]1 [Example 295, N-ethyl-6-[4-(7-fluoro-2-methylquinazolin-4-yl)-2,3,4,5-tetrahydro-1,4-benzoxazepin-7-yl]-1H-benzimidazol-2-amine] |
| 50 to 250 | CC1(C)CCc2ncnc(N3CCOc4ccc(-c5cnc(N)c(S(=O)(=O)O)c5)cc4C3)c2C1 [Example 400, 2-amino-5-[4-(6,6-dimethyl-5,6,7,8-tetrahydrquinazolin-4-yl)-2,3,4,5-tetrahydro-1,4-benzoxazepin-7-yl]pyridine-3-sulfonic acid] |
| 10 to 50 | CCNS(=O)(=O)c1cc(-c2ccc3c(c2)CN(c2ncnc4c2CC(C)(C)CC4)CCO3)cnc1N [Example 396, 2-amino-5-[4-(6,6-dimethyl-5,6,7,8-tetrahydroquinazolin-4-yl)-2,3,4,5-tetrahydro-1,4-benzoxazepin-7-yl]-N-ethylpyridine-3-sulfonamide] |
| 10 to 50 | Cc1ncnc(N2CCOc3ccc(-c4ccc5nc(N)ncc5c4)cc3C2)c1Cc1ccc(F)cc1 [Example 143, 6-(4-{5-[(4-fluorophenyl)methyl]-6-methylpyrimidin-4-yl}-2,3,4,5-tetrahydro-1,4-benzoxazepin-7-yl)quinazolin-2-amine] |
| 10 to 50 | Cc1nc2cc(-c3ccc4c(c3)CN(c3nc(CCN5CCCC5)nc5c3CC(C)(C)CC5)CCO4)cnc2[nH]1 [Example 497, 4-[6,6-dimethyl-2-(2-pyrrolidin-1-ylethyl)-5,6,7,8-tetrahydroquinazolin-4-yl]-7-(2-methyl-3H-imidazo[4,5-b]pyridin-6-yl)-2,3,4,5-tetrahydro-1,4-benzoxazepine] |
| 50 to 250 | CCc1c(C)ncnc1N1CCOc2ccc(-c3ccc4nc(C)[nH]c4c3)cc2C1 [Example 64, 4-(5-ethyl-6-methylpyrimidin-4-yl)-7-(2-methyl-1H-benzimidazol-6-yl)-2,3,4,5-tetrahydro-1,4-benzoxazepine] |
| ≤ 10 | CC1(C)CCc2ncnc(N3CCOc4ccc(-c5cnc6[nH]c(C(F)F)nc6c5)cc4C3)c2C1 [Example 229, 7-[2-(difluoromethyl)-3H-imidazo[4,5-b]pyridin-6-yl]-4-(6,6-dimethyl-5,6,7,8-tetrahydroquinazolin-4-yl)-2,3,4,5-tetrahydro-1,4-benzoxazepine] |
| 250 to 1000 | CCNc1nc2ccc(-c3ccc4c(c3)CN(c3nc(C)nc5cc(OC)ccc35)CCO4)cc2[nH]1 [Example 237, N-ethyl-6-{4-[2-methyl-7-(methyloxy)quinazolin-4-yl]-2,3,4,5-tetrahydro-1,4-benzoxazepin-7-yl}-1H-benzimidazol-2-amine] |
| 250 to 1000 | CC1(C)CCc2ncnc(N3CCOc4ccc(-c5cnc(F)c(NS(C)(=O)=O)c5)cc4C3)c2C1 [Example 632, N-{5-[4-(6,6-dimethyl-5,6,7,8-tetrahydroquinazolin-4-yl)-2,3,4,5-tetrahydro-1,4-benzoxazepin-7-yl]-2-fluoropyridin-3-yl}methanesulfonamide] |
| 50 to 250 | CC1(C)CCc2ncnc(N3CCOc4ccc(-c5cnc(N)c(S(=O)(=O)N6CCCC6)c5)cc4C3)c2C1 [Example 515, 5-[4-(6,6-dimethyl-5,6,7,8-tetrahydroquinazolin-4-yl)-2,3,4,5-tetrahydro-1,4-benzoxazepin-7-yl]-3-(pyrrolidin-1-ylsulfonyl)pyridin-2-amine] |
| 10 to 50 | Cc1ncnc(N2CCOc3ccc(-c4ccc5nc(N)sc5n4)cc3C2)c1Cc1ccc(F)cc1 [Example 140, 5-(4-{5-[(4-fluorophenyl)methyl]-6-methylpyrimidin-4-yl}-2,3,4,5-tetrahydro-1,4-benzoxazepin-7-yl)[1,3]thiazolo[5,4-b]pyridin-2-amine] |
| 50 to 250 | CCCc1c(C)nc(CN(C)C)nc1N1CCOc2ccc(-c3cnc4sc(N)nc4c3)cc2C1 [Example 657, 6-(4-{2-[(dimethylamino)methyl]-6-methyl-5-propylpyrimidin-4-yl}-2,3,4,5-tetrahydro-1,4-benzoxazepin-7-yl)[1,3]thiazolo[5,4-b]pyridin-2-amine] |
| 50 to 250 | CC1=Cc2ncnc(N3CCOc4ccc(-c5cnc(N)c(S(=O)(=O)NC[C@H]6CCN(C)C6)c5)cc4C3)c2CC1(C)C [Example 424, 2-amino-N-{[(3S)-1-methylpyrrolidin-3-yl]methyl}-5-[4-(6,6,7-trimethyl-5,6-dihydroquinazolin-4-yl)-2,3,4,5-tetrahydro-1,4-benzoxazepin-7-yl]pyridine-3-sulfonamide] |
| ≤ 10 | CCNc1nc2ncc(-c3ccc4c(c3)CN(c3nc(C)nc5c3CC(C)(C)CC5)CCO4)cc2[nH]1 [Example 290, N-ethyl-6-[4-(2,6,6-trimethyl-5,6,7,8-tetrahydroquinazolin-4-yl)-2,3,4,5-tetrahydro-1,4-benzoxazepin-7-yl]-1H-imidazo[4,5-b]pyridin-2-amine] |
| ≤ 10 | CC1(C)CCc2ncnc(N3CCOc4ccc(-c5cnc(N)c(S(=O)(=O)N6CC(N)C6)c5)cc4C3)c2C1 [Example 443, 3-[(3-aminoazetidin-1-yl)sulfonyl]-5-[4-(6,6-dimethyl-5,6,7,8-tetrahydroquinazolin-4-yl)-2,3,4,5-tetrahydro-1,4-benzoxazepin-7-yl]pyridin-2-amine] |
| 250 to 1000 | Cc1nc2cc(-c3ccc4c(c3)CN(c3nc(C(C)N5CCCC5)nc5c3CC(C)(C)CC5)CCO4)cnc2[nH]1 (stereo not drawn) [Example 496, 4-[6,6-dimethyl-2-(1-pyrrolidin-1-ylethyl)-5,6,7,8-tetrahydroquinazolin-4-yl]-7-(2-methyl-3H-imidazo[4,5-b]pyridin-6-yl)-2,3,4,5-tetrahydro-1,4-benzoxazepine] |
| 50 to 250 | Cc1nc2ncc(-c3ccc4c(c3)CN(c3ncnc5c3CC(F)(F)CC5)CCO4)cc2[nH]1 [Example 471, 4-(6,6-difluoro-5,6,7,8-tetrahydcroquinazolin-4-yl)-7-(2-methyl-1H-imidazo[4,5-b]pyridin-6-yl)-2,3,4,5-tetrahydro-1,4-benzoxazepine] |
| 10 to 50 | CC1(C)CCc2ncnc(N3CCOc4ccc(-c5cnc(N)c(S(=O)(=O)NCC(O)CN)c5)cc4C3)c2C1 (stereo not drawn) [Example 412, 2-amino-N-(3-amino-2-hydroxypropyl)-5-[4-(6,6-dimethyl-5,6,7,8-tetrahydroquinazolin-4-yl)-2,3,4,5-tetrahydro-1,4-benzoxazepin-7-yl]pyridine-3-sulfonamide] |
| 250 to 1000 | CCCc1c(C)nc(CN(C)C)nc1N1CCOc2ccc(-c3ccc4nc(C)[nH]c4c3)cc2C1 [Example 653, N,N-dimethyl-1-{4-methyl-6-[7-(2-methyl-1H-benzimidazol-6-yl)-2,3-dihydro-1,4-benzoxazepin-4(5H)-yl]-5-propylpyrimidin-2-yl}methanamine] |
| 250 to 1000 | CCc1ncnc(N2CCOc3ccc(-c4ccc5nc(C)[nH]c5c4)cc3C2)c1C [Example 56, 4-(6-ethyl-5-methylpyrimidin-4-yl)-7-(2-methyl-1H-benzimidazol-6-yl)-2,3,4,5-tetrahydro-1,4-benzoxazepine] |
| 50 to 250 | CN1CCC[C@H](CNS(=O)(=O)c2cc(-c3ccc4c(c3)CN(c3ncnc5c3CC(C)(C)CC5)CCO4)cnc2N)C1 [Example 393, 2-amino-5-[4-(6,6-dimethyl-5,6,7,8-tetrahydroquinazolin-4-yl)-2,3,4,5-tetrahydro-1,4-benzoxazepin-7-yl]-N-{[(3S)-1-methylpiperidin-3-yl]methyl}pyridine-3-sulfonamide] |
| 1000 to 2000 | CN(C)c1nc2ccc(-c3ccc4c(c3)CN(c3ccnc5ccccc35)CCO4)cc2[nH]1 [Example 195, N,N-dimethyl-6-(4-quinolin-4-yl-2,3,4,5-tetrahydro-1,4-benzoxazepin-7-yl)-1H-benzimidazol-2-amine] |
| 10 to 50 | Nc1nc2ncc(-c3ccc4c(c3)CN(c3ncnc5cc(Cl)c(Br)cc35)CCO4)cc2[nH]1 [Example 185, 6-[4-(6-bromo-7-chloroquinazolin-4-yl)-2,3,4,5-tetrahydro-1,4-benzoxazepin-7-yl]-1H-imidazo[4,5-b]pyridin-2-amine] |
